Among the data in PMC6225118 (2018) are ΔTm, binding and Kd values, retold here.

Assay [1] concerns FMycT (DNA, G4) TTGAGGGTGGGTAGGGTGGGTAA
Briefly: FRET melting. To be noted: 1 mM K+, 99 mM Li+; 10 mM lithium cacodylate pH 7.2; 0.2 µM DNA, 1 µM compound.

The test system of assay [2] is FCEB25L111TT (DNA, G4) AAGGGTGGGTGGGTGGGT
Briefly: FRET melting. To be noted: 1 mM K+, 99 mM Li+; 10 mM lithium cacodylate pH 7.2; 0.2 µM DNA, 1 µM compound.

Assay [3] concerns F21CTAT (DNA, G4) GGGCTAGGGCTAGGGCTAGGG
Briefly: FRET melting. As to conditions: 10 mM K+, 90 mM Li+; 10 mM lithium cacodylate pH 7.2; 0.2 µM DNA, 1 µM compound.

Assay [4] concerns 22CTA (DNA, G4) AGGGCTAGGGCTAGGGCTAGGG
Nature of the assay: G4-FID, thiazole orange displacement. As to conditions: 10 mM lithium cacodylate pH 7.4, 20 °C; partial displacement, saturates at 40–60%.

For assay [5], the system named is ds26 (DNA, duplex) CAATCGGATCGAATTCGATCCGATTG
Briefly: G4-FID, thiazole orange displacement. As to conditions: 10 mM lithium cacodylate pH 7.4, 20 °C, 0.25 µM DNA; up to 10 equivalents.

The subject of assay [6] is FCEB25wtT (DNA, G4) AAGGGTGGGTGTAAGTGTGGGTGGGT
Nature of the assay: FRET melting. To be noted: 1 mM K+, 99 mM Li+; 10 mM lithium cacodylate pH 7.2; 0.2 µM DNA, 1 µM compound.

Assay [7] concerns FBcl2T (DNA, G4) AGGGGCGGGCGCGGGAGGAAGGGGGCGGGAGCGGGGCTG
Nature of the assay: FRET melting. To be noted: 10 mM K+, 90 mM Li+; 10 mM lithium cacodylate pH 7.2; 0.2 µM DNA, 1 µM compound.

The test system of assay [8] is FKit2T (DNA, G4) GGGCGGGCGCGAGGGAGGGG
Briefly: FRET melting. As to conditions: 10 mM K+, 90 mM Li+; 10 mM lithium cacodylate pH 7.2; 0.2 µM DNA, 1 µM compound.

The subject of assay [9] is 22AG (DNA, G4) AGGGTTAGGGTTAGGGTTAGGG
Nature of the assay: CD titration. As to conditions: 100 mM K+; 10 mM lithium cacodylate pH 7.2, 20 °C, 5 µM DNA.

Assay [10] concerns Myc22 (c-myc) (DNA, G4) TGAGGGTGGGTAGGGTGGGTAA
Briefly: G4-FID, thiazole orange displacement. To be noted: 10 mM lithium cacodylate pH 7.4, 20 °C; partial displacement, up to 60%.

In assay [11] the test system is F21T (DNA, G4) GGGTTAGGGTTAGGGTTAGGG
Nature of the assay: FRET melting. As to conditions: 10 mM lithium cacodylate pH 7.2, 0.2 µM DNA, 1 µM compound.

Assay [12] relates to 22AG (DNA, G4) AGGGTTAGGGTTAGGGTTAGGG
Nature of the assay: CD titration, 260 nm, Hill1 fit. As to conditions: 100 mM Na+; apparent; 10 mM lithium cacodylate pH 7.2, 20 °C, 5 µM DNA.

With `Cc1nc(-c2cccc(-c3noc(-c4cccc(-c5nc(-c6cccc(-c7noc(C)n7)n6)no5)c4)n3)n2)no1`, the thermal shift (ΔTm) in assay [1] is 3.9 ± 0.9 °C; in assay [2], 0.9 ± 0.8 °C; in [3] it was 4.1 ± 0.1 °C; in assay [6], 0.9 ± 0.7 °C; in assay [7], 2.9 ± 0.7 °C; in assay [8], 5.3 ± 0.4 °C. Besides, the ΔTm in assay [11] (10 mM K+, 90 mM Li+) is 10.8 ± 0.4 °C; in [11] (100 mM Na+) it was 16.6 ± 0.8 °C. For the same molecule, the binding result in assay [4] was “yes”; in assay [5], “no”; in assay [9] it was “yes”; in assay [10], “yes”. In addition, in [12], the Kd is 3.3 µM.

As for `Cc1nc(-c2cccc(-c3noc(-c4cccc(-c5nc(-c6cccc(-c7noc(C)n7)n6)no5)n4)n3)n2)no1`, the ΔTm in assay [3] was 5.5 ± 0.2 °C; in assay [8] it was 4.1 ± 0.3 °C; in assay [11] (10 mM K+, 90 mM Li+) it was 11.5 ± 0.6 °C; in assay [11] (100 mM Na+), 13.8 ± 0.4 °C. Further, the binding entry in assay [4] is “yes”; in assay [5], “no”; in assay [9], “yes”; in assay [10] it was “yes”. Also, the Kd in [12] worked out at 3.6 µM.

For orientation: ΔTm means the change in melting temperature against a reference sample.
